Experiment: xn = mol fraction of the nth substance listed
Details: Liquid, Vibrating tube method

COC(=O)OC [dimethyl carbonate] + CCCCCCCC
mass density [kg/m3]
Details | x1 = 0.0535 | x1 = 0.0978 | x1 = 0.3935 | x1 = 0.496 | x1 = 0.5475 | x1 = 0.5937 | x1 = 0.7002 | x1 = 0.8013 | x1 = 0.8979 | x1 = 0.9502
288.15 K, 100 kPa | 716.4 | 723.8 | 791.6 | 822.9 | 840.9 | 854.9 | 899.6 | 941.7 | 1005 | 1036.8
288.15 K, 5000 kPa | 719.8 | 727.9 | 796.9 | 827.5 | 844.6 | 862 | 904.6 | 952.4 | 1009 | 1043.2
288.15 K, 10000 kPa | 723.6 | 731.9 | 801.1 | 831.8 | 849 | 866.2 | 908.9 | 956.9 | 1013.3 | 1047.5
288.15 K, 20000 kPa | 730.9 | 739.3 | 808.8 | 839.6 | 857 | 874.3 | 917 | 965 | 1021.7 | 1055.7
288.15 K, 30000 kPa | 737.5 | 745.8 | 816 | 846.9 | 864.3 | 881.6 | 924.4 | 972.5 | 1029.1 | 1063.1
288.15 K, 40000 kPa | 743.7 | 752 | 822.8 | 853.8 | 871.2 | 888.7 | 931.6 | 979.7 | 1036.3 | 1070.4
298.15 K, 100 kPa | 707.4 | 715.3 | 782.6 | 812.6 | 829.5 | 846.5 | 888.6 | 936 | 992.1 | 1025.9
298.15 K, 5000 kPa | 712.2 | 720.2 | 787.8 | 817.9 | 834.9 | 851.7 | 893.9 | 941.4 | 997.3 | 1031.1
298.15 K, 10000 kPa | 715.9 | 724.1 | 791.8 | 822 | 839 | 856.1 | 898.1 | 945.6 | 1001.5 | 1035.3
298.15 K, 20000 kPa | 723.6 | 731.7 | 800.1 | 830.4 | 847.5 | 864.6 | 906.8 | 954.2 | 1010.1 | 1043.7
298.15 K, 30000 kPa | 730.5 | 738.7 | 807.7 | 838.1 | 855.3 | 872.4 | 914.8 | 962.1 | 1018 | 1051.7
298.15 K, 40000 kPa | 736.8 | 745.1 | 814.6 | 845.1 | 862.5 | 879.6 | 922 | 969.7 | 1025.6 | 1059.1
308.15 K, 100 kPa | 699.2 | 706.9 | 772.9 | 802.3 | 819 | 835.7 | 877.3 | 924.1 | 979.6 | 1013.1
308.15 K, 5000 kPa | 704 | 711.8 | 778.1 | 807.6 | 824.2 | 841 | 882.6 | 929.2 | 984.6 | 1018.1
308.15 K, 10000 kPa | 708.3 | 716.2 | 782.8 | 812.4 | 829.1 | 845.9 | 887.5 | 934.4 | 989.6 | 1023.1
308.15 K, 20000 kPa | 716.3 | 724.3 | 791.5 | 821.3 | 838.1 | 854.9 | 896.6 | 943.4 | 998.7 | 1032.1
308.15 K, 30000 kPa | 723.7 | 731.6 | 799.6 | 829.5 | 846.4 | 863.3 | 905 | 951.9 | 1007.1 | 1040.4
308.15 K, 40000 kPa | 730.4 | 738.4 | 806.9 | 836.9 | 853.9 | 870.8 | 912.8 | 959.7 | 1015 | 1048.3

CCCCCCCCCC [decane] + COC(=O)OC
mass density [kg/m3]
Details | x2 = 0.0438 | x2 = 0.11 | x2 = 0.2348 | x2 = 0.3516 | x2 = 0.3944 | x2 = 0.557 | x2 = 0.8035 | x2 = 0.95
288.15 K, 100 kPa | 739 | 749 | 769.2 | 792 | 801.9 | 844.5 | 944.4 | 1034.2
288.15 K, 5000 kPa | 742.7 | 753.6 | 773.1 | 796 | 805.9 | 848.7 | 948.8 | 1038.5
288.15 K, 10000 kPa | 746.2 | 757.2 | 776.8 | 799.9 | 809.8 | 852.6 | 953.1 | 1042.8
288.15 K, 20000 kPa | 752.7 | 763.9 | 783.7 | 807 | 817 | 858.8 | 963.1 | 1050.8
288.15 K, 30000 kPa | 758.8 | 769.8 | 790 | 813.4 | 823.5 | 865 | 971.2 | 1058.2
288.15 K, 40000 kPa | 764.3 | 775.8 | 796.1 | 819.7 | 829.3 | 872.6 | 977.8 | 1065.3
298.15 K, 100 kPa | 731.3 | 741.9 | 760.8 | 783.2 | 793.3 | 831.4 | 932.1 | 1021.4
298.15 K, 5000 kPa | 735.6 | 746.2 | 765.5 | 787.9 | 798 | 836.7 | 937.6 | 1026.5
298.15 K, 10000 kPa | 739 | 749.7 | 769 | 791.4 | 801.8 | 840.5 | 942.1 | 1030.7
298.15 K, 20000 kPa | 745.9 | 756.6 | 776.2 | 799 | 809.4 | 848.3 | 951.1 | 1039
298.15 K, 30000 kPa | 752.2 | 763.1 | 782.9 | 805.9 | 816.6 | 856.1 | 959.2 | 1047
298.15 K, 40000 kPa | 758.1 | 769 | 789 | 812.2 | 823 | 863.2 | 966.8 | 1054.4
308.15 K, 100 kPa | 723.6 | 733.9 | 752.5 | 774.3 | 783.8 | 820.2 | 920.7 | 1008.8
308.15 K, 5000 kPa | 727.7 | 738.2 | 756.9 | 778.9 | 788.5 | 825.6 | 926.3 | 1013.8
308.15 K, 10000 kPa | 731.7 | 742.2 | 761 | 783.2 | 792.8 | 830.8 | 931.6 | 1018.5
308.15 K, 20000 kPa | 739 | 749.7 | 768.6 | 790.9 | 801.1 | 840 | 941.1 | 1027.6
308.15 K, 30000 kPa | 745.6 | 756.4 | 775.6 | 798.3 | 808.4 | 848.4 | 949.7 | 1035.9
308.15 K, 40000 kPa | 751.8 | 762.6 | 782.1 | 804.9 | 815.3 | 856.1 | 957.8 | 1043.7
